How the values were obtained:
Test in all cases: 3' UTR reporter interaction score (median-centred robust z-score of log2 firefly/Renilla activity); higher = less repression of the 3' UTR reporter
Conditions in all cases: HEK293T; 48 h
ZEB2 = system: ZEB2
Outline: (§1)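 The interaction score is based on the log-transformed firefly/Renilla luciferase ratio, scaled as a robust z-score within each plate by median and median absolute deviation and median-centred for each miRNA; more negative scores indicate interaction. It was averaged over at least two independent screens. Readings were taken 48 h after HEK293T cells (10,000/well, 96-well plates) were co-transfected by DharmaFECT Duo with 100 ng firefly luc2P 3' UTR reporter, 20 ng Renilla pRL-TK and 2.5 pmol miRNA mimic.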

FBXW7 = system: FBXW7
Outline: as §1

MYB = system: MYB
Outline: as §1

RB1 = system: RB1
Outline: as §1

BRCA2 = system: BRCA2
Outline: as §1

HRAS = system: HRAS
Outline: as §1

EZH2 = system: EZH2
Outline: as §1

TP53 = system: TP53
Outline: as §1

MYT1L = system: MYT1L
Outline: as §1

PHF6 = system: PHF6
Outline: as §1

PHOX2B = system: PHOX2B
Outline: as §1

MYCN = system: MYCN
Outline: as §1

MYC = system: MYC
Outline: as §1

NOTCH1 = system: NOTCH1
Outline: as §1

| Sequence | 3' UTR reporter interaction score (ZEB2) | 3' UTR reporter interaction score (FBXW7) | 3' UTR reporter interaction score (MYB) | 3' UTR reporter interaction score (RB1) | 3' UTR reporter interaction score (BRCA2) | 3' UTR reporter interaction score (HRAS) | 3' UTR reporter interaction score (EZH2) | 3' UTR reporter interaction score (TP53) | 3' UTR reporter interaction score (MYT1L) | 3' UTR reporter interaction score (PHF6) | 3' UTR reporter interaction score (PHOX2B) | 3' UTR reporter interaction score (MYCN) | 3' UTR reporter interaction score (MYC) | 3' UTR reporter interaction score (NOTCH1) |
| --- | --- | --- | --- | --- | --- | --- | --- | --- | --- | --- | --- | --- | --- | --- |
| GAAGGCGCUUCCCUUUAGAGC | 0.676 | 0.412 | 0.182 | 0.388 | 0.0383 | -1.63 | -1.42 | -0.514 | 0.364 | 0.189 | 1.35 | 0.218 | -0.899 | -0.268 |
| GAAGGCGCUUCCCUUUGGAGU | 1.47 | 0.348 | -0.216 | 0.389 | 0.864 | -1.8 | -1.48 | -0.237 | 0.212 | 0.395 | 2.09 | -0.406 | -1.08 | -0.115 |
| GAAGUGCUUCGAUUUUGGGGUGU | 0.378 | -0.253 | 0.012 | 2.22 | 0.244 | 0.659 | -0.43 | -1.53 | -0.424 | 0.808 | 0.548 | 0.643 | 0.42 | 0.231 |
| GAAGUGUGCCGUGGUGUGUCU | -0.231 | 1.69 | -0.373 | 0.538 | -0.0229 | -0.384 | -0.113 | 0.832 | -1.67 | -0.942 | 1.74 | -0.199 | -0.0876 | -0.516 |
| GAAGUUGUUCGUGGUGGAUUCG | 0.478 | -1.37 | 0.448 | 1.05 | 0.514 | 0.113 | -2.16 | -1.17 | -1.32 | -0.491 | -0.358 | -0.332 | 0.185 | 0.409 |
| GACACGGGCGACAGCUGCGGCCC | 0.917 | -0.302 | 0.262 | 1.37 | -0.257 | 0.13 | -0.294 | 0.243 | -0.281 | 1.16 | -0.471 | -0.202 | -0.271 | -0.641 |
| GACCUGGACAUGUUUGUGCCCAGU | 2.18 | 0.534 | -0.217 | -0.469 | 0.214 | -0.318 | -0.0513 | -0.242 | 0.464 | 0.792 | 0.605 | 0.492 | -0.104 | -0.107 |
| GAGCCAGUUGGACAGGAGC | -0.65 | 0.107 | 0.363 | -0.775 | -1.34 | 0.00377 | -0.353 | 1 | 0.521 | -1.97 | 0.261 | 0.298 | -0.0272 | -0.874 |
| GAGCUUAUUCAUAAAAGUGCAG | -1.29 | -1.75 | 0.663 | 2.05 | 0.117 | 0.562 | 0.564 | -1.36 | -2.82 | -0.038 | -0.299 | 0.314 | 1.07 | -0.458 |
